Laboratory results from the NIST ThermoML archive (doi:10.1021/je020191g).
Values joined by “and” are separate entries in the source; they are usually repeats but may differ in a detail not shown here. Equal values may be shown once.

How the values were obtained:
[1] = 101.33 kPa, Liquid
[2] = xn = mol fraction of the nth substance listed; conditions: 101.33 kPa, Liquid

C1CCNC1 [pyrrolidine]
[1]
Conditions	mass density [kg/m3]
298.15 K	854.6
323.15 K	833.7

C1CCNC1 [pyrrolidine] + O
mass density, [2]
Conditions	298.15 K	323.15 K
x1 = 0.099	976 kg/m3	960 kg/m3
x1 = 0.1	973.9 kg/m3	963.6 kg/m3
x1 = 0.199	956.6 kg/m3	941.5 kg/m3
x1 = 0.204	952.8 kg/m3	937.2 kg/m3
x1 = 0.297	934.7 kg/m3	921.2 kg/m3
x1 = 0.299	938.8 kg/m3	924.5 kg/m3
x1 = 0.396	925.8 kg/m3	904 kg/m3
x1 = 0.399	925.4 kg/m3	907.4 kg/m3
x1 = 0.497	912.1 kg/m3	891.1 kg/m3
x1 = 0.498	911.5 kg/m3	891.2 kg/m3
x1 = 0.589	901.1 kg/m3	883.5 kg/m3
x1 = 0.596	900.2 kg/m3	879.9 kg/m3
x1 = 0.675	893.8 kg/m3	871.3 kg/m3
x1 = 0.697	893.4 kg/m3	868.5 kg/m3
x1 = 0.786	879.9 kg/m3	858.3 kg/m3
x1 = 0.796	877.1 kg/m3	858.6 kg/m3
x1 = 0.882	865.3 kg/m3	843.5 kg/m3
x1 = 0.888	865.6 kg/m3	845.6 kg/m3
x1 = 0.995	852.9 kg/m3 and 856.2 kg/m3	834.6 kg/m3 and 832.8 kg/m3

C1COCCN1 [tetrahydro-1,4-oxazine]
[1]
Conditions	mass density [kg/m3]
298.15 K	996
333.15 K	965.9

C1COCCN1 [tetrahydro-1,4-oxazine] + O
mass density, [2]
Conditions	298.15 K	333.15 K
x1 = 0.1	1023.2 kg/m3 and 1010.6 kg/m3	1001.2 kg/m3 and 1005.4 kg/m3
x1 = 0.199	1031.5 kg/m3 and 1025.9 kg/m3	1010.5 kg/m3 and 1006.2 kg/m3
x1 = 0.298	1030.9 kg/m3	1010.6 kg/m3
x1 = 0.299	1029.6 kg/m3	1006.8 kg/m3
x1 = 0.398	1029.8 kg/m3 and 1028.4 kg/m3	1006.1 kg/m3 and 1005.1 kg/m3
x1 = 0.497	1023.4 kg/m3	1000.6 kg/m3
x1 = 0.498	1025.5 kg/m3	996.6 kg/m3
x1 = 0.591	1016.8 kg/m3	990.3 kg/m3
x1 = 0.597	1019.4 kg/m3	999 kg/m3
x1 = 0.692	1013.5 kg/m3	982.6 kg/m3
x1 = 0.696	1013.5 kg/m3	989.6 kg/m3
x1 = 0.793	1005.7 kg/m3	976 kg/m3
x1 = 0.796	1003.9 kg/m3	976.4 kg/m3
x1 = 0.895	997.4 kg/m3	968.9 kg/m3
x1 = 0.897	999.2 kg/m3	969.3 kg/m3
x1 = 0.995	996 kg/m3 and 994.9 kg/m3	967.3 kg/m3 and 964.4 kg/m3

O [water]
[1]
Conditions	mass density [kg/m3]
323.15 K	988.04
333.15 K	983.2

O [water] + C1CCNC1
Conditions	mass density [kg/m3]
[2], 323.15 K, x2 = 0	988.04

O [water] + C1COCCN1
Conditions	mass density [kg/m3]
[2], 333.15 K, x2 = 0	983.2
